Laboratory results from publication PMC8816891, “High-throughput cell-based assays for identifying antagonists of multiple smoking-associated human nicotinic acetylcholine receptor subtypes” (SLAS discovery : advancing life sciences R & D, 2021).
Structures can show the parent of a compound that is named as a salt. Where two headings read alike, the source gives them in different places.

Legend:
human α4β2-nAChR [1] = target: T1, human α4β2-nAChR (Homo sapiens, UniProt P17787+P43681); assay: cell-based
T1 sequence (P43681 29-627 limits assumed): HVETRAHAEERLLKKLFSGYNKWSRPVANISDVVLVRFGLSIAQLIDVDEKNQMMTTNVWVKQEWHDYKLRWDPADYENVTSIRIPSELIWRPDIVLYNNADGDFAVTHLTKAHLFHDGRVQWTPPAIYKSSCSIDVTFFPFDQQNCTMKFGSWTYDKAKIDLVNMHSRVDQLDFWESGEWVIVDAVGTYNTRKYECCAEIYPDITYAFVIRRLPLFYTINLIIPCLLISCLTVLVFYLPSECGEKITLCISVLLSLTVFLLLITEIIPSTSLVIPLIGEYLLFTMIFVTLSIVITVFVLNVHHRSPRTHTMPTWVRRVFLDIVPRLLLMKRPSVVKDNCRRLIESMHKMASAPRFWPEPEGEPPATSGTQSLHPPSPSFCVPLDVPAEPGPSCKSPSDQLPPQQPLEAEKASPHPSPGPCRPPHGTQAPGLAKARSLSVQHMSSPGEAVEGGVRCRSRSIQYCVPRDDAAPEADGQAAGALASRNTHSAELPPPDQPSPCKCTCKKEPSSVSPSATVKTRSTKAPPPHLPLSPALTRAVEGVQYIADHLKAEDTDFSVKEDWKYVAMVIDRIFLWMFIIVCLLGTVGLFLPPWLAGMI
T1 sequence (P17787 26-502): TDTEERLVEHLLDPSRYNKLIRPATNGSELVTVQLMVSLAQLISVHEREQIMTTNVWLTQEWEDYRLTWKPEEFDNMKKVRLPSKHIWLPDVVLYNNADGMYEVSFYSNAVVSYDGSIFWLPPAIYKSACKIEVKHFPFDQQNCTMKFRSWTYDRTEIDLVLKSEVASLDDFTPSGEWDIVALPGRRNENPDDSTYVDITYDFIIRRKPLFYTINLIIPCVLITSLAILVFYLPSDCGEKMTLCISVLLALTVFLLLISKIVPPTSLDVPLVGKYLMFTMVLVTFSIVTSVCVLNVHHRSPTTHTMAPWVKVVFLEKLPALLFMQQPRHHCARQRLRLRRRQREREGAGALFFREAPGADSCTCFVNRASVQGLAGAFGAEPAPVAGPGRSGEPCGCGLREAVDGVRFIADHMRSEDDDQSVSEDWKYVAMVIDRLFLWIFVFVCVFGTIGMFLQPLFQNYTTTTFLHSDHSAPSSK
Method: As described in that prior publication, this SH-EP1-α6/3 β2β3-nAChR monoclone is maintained in medium supplemented with zeocin (0.25 mg/mL), hygromycin (0.13 mg/mL biologically active) and G418 (0.6 mg/mL) to maintain positive selection of transfectants, and cultured at low passage numbers (1–40 from our frozen stocks) to ensure stable expression of the phenotype.
For the SH-EP1-α4 β2-nAChR and SH-EP1-α6/3 β2β3-nAChR lines: cells were seeded into 384-well black tissue culture plates (Corning #3712) at 7000 cells per well in 50 μl assay media using a microfill (BioTek). The plates were incubated overnight at 37 °C to allow cells to adhere to the plate, then transferred to 29 °C and incubated for ~72h to maximize receptor expression. On the compound addition day, medium was aspirated and plates washed one time with wash buffer (1x HBSS with 20 mM HEPES adjusted to pH 7.4) using a BioTek ELx405 Select CW Plate Washer. Twenty-five microliters of 0.5x FLIPR Membrane Potential dye (Molecular Devices, R8034; prepared in wash buffer) was added to the plates using a microfill. The plates were further incubated at 29 °C for 60 min and background fluorescence was measured (Envision, Perkin Elmer). […] Plates were then incubated at room temperature for 20 min and fluorescence was measured again. Background fluorescence was subtracted from the final fluorescence read during data analysis.
EC50 values were calculated using nonlinear regression analysis via GraphPad Prism 7 (GraphPad software, Inc.).
After subtracting background fluorescence from fluorescent read for each plate well, the raw data were converted into a list and all plates were appended by run. For analysis purposes, each data point was annotated with well coordinate, well type, compound identifier, titer plate barcode, run identifier, date, and protocol information. Basic statistics and QC criteria were calculated within TIBCO Spotfire (v7.0.0). Basic statistics of control wells were examined by well type, by run, plate, and row/column to monitor run-to-run and plate-to-plate variation, and to exclude possible experimental issues such as striping. […] Concordance between replicates was assessed using linear regression. For each test well, the percentage of inhibition was obtained by subtracting the normalized fluorescent signal (NFS), expressed as a percentage, from 100%.

human α6/3β2β3-nAChR [2] = target: T2, human α6/3β2β3-nAChR (Homo sapiens, UniProt P17787+P32297+Q05901+Q15825); assay: membrane potential dye assay, SH-EP1-α6/3β2β3-nAChR cells; format: cell-based
T2 construct: expressed in transfected cells
T2 sequence (Q15825+P32297 fused with the stated changes): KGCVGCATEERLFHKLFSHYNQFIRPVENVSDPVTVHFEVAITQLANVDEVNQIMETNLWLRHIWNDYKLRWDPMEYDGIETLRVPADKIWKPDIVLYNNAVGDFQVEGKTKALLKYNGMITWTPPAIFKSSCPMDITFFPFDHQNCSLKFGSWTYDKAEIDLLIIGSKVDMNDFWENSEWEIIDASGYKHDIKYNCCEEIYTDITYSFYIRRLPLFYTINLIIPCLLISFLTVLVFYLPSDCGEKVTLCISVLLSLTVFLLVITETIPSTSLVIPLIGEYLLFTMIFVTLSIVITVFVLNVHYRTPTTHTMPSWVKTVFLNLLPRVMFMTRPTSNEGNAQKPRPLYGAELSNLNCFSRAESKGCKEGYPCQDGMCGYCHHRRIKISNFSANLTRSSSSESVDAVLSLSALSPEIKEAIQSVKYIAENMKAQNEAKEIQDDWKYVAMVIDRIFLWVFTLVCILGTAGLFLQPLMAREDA
T2 sequence (P17787 26-502): as the sequence (P17787 26-502) above
T2 sequence (Q05901 22-458): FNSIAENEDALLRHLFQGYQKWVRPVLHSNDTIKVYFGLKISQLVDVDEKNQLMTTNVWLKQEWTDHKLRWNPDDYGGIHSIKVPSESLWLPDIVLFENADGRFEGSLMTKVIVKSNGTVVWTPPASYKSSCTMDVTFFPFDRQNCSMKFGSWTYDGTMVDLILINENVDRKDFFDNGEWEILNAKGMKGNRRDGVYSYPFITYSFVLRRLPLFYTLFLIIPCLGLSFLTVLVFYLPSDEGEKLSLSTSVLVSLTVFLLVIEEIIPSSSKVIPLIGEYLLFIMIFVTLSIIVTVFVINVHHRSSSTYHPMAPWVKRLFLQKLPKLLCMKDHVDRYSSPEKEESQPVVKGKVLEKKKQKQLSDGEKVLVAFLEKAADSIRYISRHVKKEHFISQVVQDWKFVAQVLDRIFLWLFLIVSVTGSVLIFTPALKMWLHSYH
Method: (§1) Concordance between replicates was assessed using linear regression.

human α4β2-nAChR [3] = target: T1, human α4β2-nAChR; assay: 86Rb+ efflux orthogonal assay, SH-EP1-α4β2-nAChR cells; format: cell-based; design: expressed in transfected cells; conditions: 10 μM; validated = reduced specific efflux by > 3x SD vs no-drug control
Method: Cells were grown to confluence in 24-well plates (Falcon; 500 μl volume per well). The evening before each assay was to be performed, the medium was removed and replaced with 250 μl per well of complete medium supplemented with ~350,000 cpm of ^86Rb^+ (NEN; counted at 40% efficiency using Cerenkov counting and the Packard TriCarb 1900 Liquid Scintillation Analyzer). This allowed overnight loading of cells with tracer. The assay was based on a proven, routine ^86Rb^+ efflux assay “flip-plate” protocol that includes 1500 nM atropine to exclude possible contributions of muscarinic acetylcholine receptors, with test compound or control solutions applied for 30 s.
Determinations of antagonist efficacy were performed in triplicate in each plate, and each antagonist was tested in three separate experiments. […] Both determinations of non-specific efflux were equivalent. Specific efflux was then taken as the difference in control samples between total and non-specific ^86Rb^+ efflux, and was used to calculate the efficacy of blocking specific efflux by the test compounds.
Fig. 4. Validation and specificity testing of HTS antagonist hits using an orthogonal assay. […] Activity measured at α3β4-nAChR is shown with blue symbols, that at α4β2-nAChR with red symbols, and that at α6/3 β2 β3-nAChR with green symbols. […]

human α6/3β2β3-nAChR [4] = target: T2, human α6/3β2β3-nAChR; assay: 86Rb+ efflux orthogonal assay, SH-EP1-α6/3β2β3-nAChR cells; format: cell-based; conditions: 10 μM; validated = reduced specific efflux by > 3x SD vs no-drug control
Method: (§2) Cells were grown to confluence in 24-well plates (Falcon; 500 μl volume per well). The evening before each assay was to be performed, the medium was removed and replaced with 250 μl per well of complete medium supplemented with ~350,000 cpm of ^86Rb^+ (NEN; counted at 40% efficiency using Cerenkov counting and the Packard TriCarb 1900 Liquid Scintillation Analyzer). This allowed overnight loading of cells with tracer.
(§3) Determinations of antagonist efficacy were performed in triplicate in each plate, and each antagonist was tested in three separate experiments. […] Specific efflux was then taken as the difference in control samples between total and non-specific ^86Rb^+ efflux, and was used to calculate the efficacy of blocking specific efflux by the test compounds.
(§4) Fig. 4. Validation and specificity testing of HTS antagonist hits using an orthogonal assay. […] (A) All plates were normalized to internal maximum and minimum controls, as described in the Materials and Methods section. […] Activity measured at α3β4-nAChR is shown with blue symbols, that at α4β2-nAChR with red symbols, and that at α6/3 β2 β3-nAChR with green symbols. Dashed lines are color-matched to data symbols and designate the 3 X SD thresholds above the no-antagonist controls, used to determine validation of antagonist activity in each of the assays.

human α3β4-nAChR [5] = target: T3, human α3β4-nAChR (Homo sapiens, UniProt P30926+P32297); assay: 86Rb+ efflux orthogonal assay, SH-EP1-α3β4-nAChR cells; format: cell-based; conditions: 10 μM; validated = reduced specific efflux by > 3x SD vs no-drug control
T3 construct: expressed in transfected cells
T3 sequence (P32297 32-505): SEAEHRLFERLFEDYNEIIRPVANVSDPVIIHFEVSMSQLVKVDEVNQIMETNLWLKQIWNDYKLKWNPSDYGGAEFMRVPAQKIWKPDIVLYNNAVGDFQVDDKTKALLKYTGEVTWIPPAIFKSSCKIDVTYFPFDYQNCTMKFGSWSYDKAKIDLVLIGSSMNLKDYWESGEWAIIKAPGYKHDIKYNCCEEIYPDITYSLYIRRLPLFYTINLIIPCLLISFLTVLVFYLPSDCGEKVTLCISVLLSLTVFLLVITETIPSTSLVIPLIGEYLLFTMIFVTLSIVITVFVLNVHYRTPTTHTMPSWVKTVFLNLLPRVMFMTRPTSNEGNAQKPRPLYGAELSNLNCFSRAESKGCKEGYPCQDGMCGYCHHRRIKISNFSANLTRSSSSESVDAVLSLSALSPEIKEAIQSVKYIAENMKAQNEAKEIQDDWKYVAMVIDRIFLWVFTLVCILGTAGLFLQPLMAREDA
T3 sequence (P30926 22-498): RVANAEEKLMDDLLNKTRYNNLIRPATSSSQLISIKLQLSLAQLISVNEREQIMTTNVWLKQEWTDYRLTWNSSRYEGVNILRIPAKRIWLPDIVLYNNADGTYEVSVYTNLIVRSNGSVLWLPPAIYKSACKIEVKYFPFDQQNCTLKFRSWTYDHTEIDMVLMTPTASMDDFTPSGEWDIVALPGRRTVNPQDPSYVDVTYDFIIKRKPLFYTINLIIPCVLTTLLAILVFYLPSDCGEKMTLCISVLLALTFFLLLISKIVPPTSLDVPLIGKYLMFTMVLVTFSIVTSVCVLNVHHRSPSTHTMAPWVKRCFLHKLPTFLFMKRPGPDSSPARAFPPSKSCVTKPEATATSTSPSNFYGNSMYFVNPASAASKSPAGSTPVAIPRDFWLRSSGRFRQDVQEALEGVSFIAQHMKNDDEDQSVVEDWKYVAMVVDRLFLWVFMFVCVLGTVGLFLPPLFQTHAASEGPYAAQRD
Method: as §2, §3, §4

human α3β4-nAChR [6] = target: T3, human α3β4-nAChR; assay: membrane potential dye assay, SH-EP1-α3β4-nAChR cells; format: cell-based
Method: as §1

[7] = IC50, 5 min incubation, in the presence of 500nM of nicotine
[8] = IC50, 10 min incubation, in the presence of 500nM of nicotine
[9] = IC50, 20 min incubation, in the presence of 500nM of nicotine
[10] = IC50, 25 min incubation, in the presence of 500nM of nicotine
[11] = average IC50 across all time-points, averaged over 5-30 min reads, nicotine at EC90
[12] = read-out: pre-determined EC90 value

| Structure (SMILES) | IC50 (human α4β2-nAChR [1]; IC50) | IC50 (human α4β2-nAChR [1]; [7]) | IC50 (human α4β2-nAChR [1]; [8]) | IC50 (human α4β2-nAChR [1]; [9]) | IC50 (human α4β2-nAChR [1]; [10]) | IC50 (human α4β2-nAChR [1]; [11]) | further results |
| --- | --- | --- | --- | --- | --- | --- | --- |
| C[N+](C)(C)CCCCCC[N+](C)(C)C [hexamethonium] | 71600 nM | 98300 nM | 100000 nM | 47900 nM | 38900 nM | 65800 ± 28800 nM | IC50 (human α4β2-nAChR [1]; IC50, 30 min incubation, in the presence of 500nM of nicotine): 37400 nM |
| CNC1(C)C2CCC(C2)C1(C)C (stereo not drawn) [mecamylamine] | 896 nM | 2250 nM | 1090 nM | 919 nM | 983 nM | 1210 ± 520 nM | IC50 (human α4β2-nAChR [1]; IC50 (α4β2), Fig. 2D, in the presence of 500 nM nicotine (EC90), subtype comparison): 537 nM; IC50 (human α4β2-nAChR [1]; average IC50, comparison across subtypes, nicotine at EC90): 540 nM; IC50 (human α6/3β2β3-nAChR [2]; in the presence of 500 nM nicotine (EC90), read-out: IC50 (α6/3β2β3), Fig. 2D): 1670 nM; IC50 (human α6/3β2β3-nAChR [2]; nicotine at EC90, read-out: average IC50, comparison across subtypes): 1670 nM; antagonist hit identified in HTS and validated by 86Rb+ efflux (human α4β2-nAChR [3]): identified and validated as a hit; antagonist hit identified in HTS and validated by 86Rb+ efflux (human α6/3β2β3-nAChR [4]): identified and validated as a hit; antagonist hit identified in HTS and validated by 86Rb+ efflux (human α3β4-nAChR [5]): identified and validated as a hit |
| CN1CCC[C@H]1c1cccnc1 [nicotine, (−)-nicotine] | – | – | – | – | – | – | EC90 (human α4β2-nAChR [1]; [12]): 500 nM; EC90 (human α6/3β2β3-nAChR [2]; [12]): 500 nM; EC90 (human α3β4-nAChR [6]; [12]): 20000 nM |
| CNCCC=C1c2ccccc2CCc2ccccc21 [nortriptyline hydrochloride] | – | – | – | – | – | – | antagonist hit call in pilot screen (human α3β4-nAChR [6]; test compound 10 μM with 20 μM nicotine (EC90), hit = signal below mean - 3 SD): identified as a hit |
